Assays:
Format in all cases: toxicity, cell-based
[1] = Cytotoxicity against human SF-268 cells assessed as reduction in cell viability after 24 hrs by SRB assay
[2] = Cytotoxicity against human MCF7 cells assessed as reduction in cell viability after 24 hrs by SRB assay
[3] = Cytotoxicity against human HepG2 cells assessed as reduction in cell viability after 24 hrs by SRB assay
[4] = Cytotoxicity against human A549 cells assessed as reduction in cell viability after 24 hrs by SRB assay

Measured: IC50 at 24 h

C/C1=C/C[C@@]2(C)[C@H](C)CC=C([C@@H]3[C@@H]1CC[C@](C)(O)[C@H]3O)[C@H]2C
> 10 µM: all assays above

C=C1CC[C@@]2(C)[C@H](C)C[C@@H]3O[C@]3([C@@H]3[C@@H]1CC[C@](C)(O)[C@H]3O)[C@H]2C
> 10 µM: all assays above

CC1=CC[C@H]2[C@]3(O[C@H]4[C@]2(C)[C@@H](O)C[C@@]2(C)[C@H](C)CC=C3[C@@]42O)[C@H]1O
> 10 µM: all assays above

C[C@@H]1CC=C2[C@H]3[C@H](O)[C@@](C)(O)CC[C@@H]3[C@@](C)(O)CC[C@]1(C)[C@@H]2C
> 10 µM: all assays above

CC1=CC[C@@H]2[C@@]3(C)CC[C@]4(C)C5=C([C@@H](O)C[C@H]4C)[C@@]2(O[C@H]53)[C@H]1O
> 10 µM: all assays above

C=C1CC[C@@]2(C)[C@H](C)CC=C([C@@H]3[C@@H]1CC[C@](C)(O)[C@H]3O)[C@H]2C
> 10 µM: all assays above

CC1=CC[C@@H]2[C@@]3(C)CC[C@@]4(C)[C@H](C)[C@@H](O)C=C5[C@@]2(O[C@@H]3[C@]54O)[C@H]1O
> 10 µM: all assays above

CC1=CC[C@@H]2[C@@]3(C)CC[C@@]4(C)[C@H](C)CC(=O)[C@H]5[C@@]2(O[C@@H]3[C@]54O)[C@H]1O
> 10 µM: all assays above

Source: ChEMBL document CHEMBL5120944, “Neocucurbols A-H, Phomactin Diterpene Derivatives from the Marine-Derived Fungus Neocucurbitaria unguis-hominis FS685” (J Nat Prod, 2022)
